Legend:
[1] = Whole animal toxicity assay; conditions: doses up from 75 mg/kg; no MTD was determined
[2] = system: MDA MB 435 metastatic dermal breast cancer cells; assay: Cell cycle analysis in MDA-MB-435 cells; assay type: cell-based, human; conditions: 20 μM, 24 h exposure
[3] = Dose-finding embryo lethality in CAM model; assay type: in vivo; conditions: chicken embryos, 3 days after injection
[4] = system: COLO-205 metastatic colon cancer cells; assay: COLO-205 human metastatic colon mouse xenograft; assay type: in vivo, athymic mice; conditions: 1 at both 25 and 35 mg/kg; DMBI 15 mg/kg three times weekly
[5] = system: MDA-MB-435, A431, Capan-1, HUVEC, HMEC-1, Huperi-3, human aortic SMCs; assay: Cell viability; conditions: 24 h drug then 24 h serum-containing media; Fig. 10
MDA-MB-435 breast cells = assay: Cell signaling analysis; assay type: cell-based, human; conditions: MDA-MB-435 cells, 20 μM, 1 or 4 h
NCI 60 tumor cell lines = assay: NCI preclinical 60 tumor cell line panel growth inhibition; assay type: cell-based; conditions: Homo sapiens, read-out: GI50 against the growth of the NCI 60 tumor cell lines
[6] = biological target: human thymidylate synthase (hTS) (Homo sapiens, UniProt P04818); assay: Thymidylate synthase; assay type: biochemical; conditions: versus pemetrexed
[7] = biological target: E. coli thymidylate synthase (Escherichia coli, UniProt P0A884); assay: Thymidylate synthase; assay type: biochemical
PDGFR-β = PDGFR-β (Homo sapiens, UniProt P09619); assay: PDGFR-β kinase inhibition, phosphotyrosine cytoblot in SF539 cells; assay type: cell-based; conditions: versus DMBI
[8] = biological target: T1, Toxoplasma gondii thymidylate synthase (Toxoplasma gondii, UniProt Q07422); assay: biochemical
T1 sequence (Q07422 1-610): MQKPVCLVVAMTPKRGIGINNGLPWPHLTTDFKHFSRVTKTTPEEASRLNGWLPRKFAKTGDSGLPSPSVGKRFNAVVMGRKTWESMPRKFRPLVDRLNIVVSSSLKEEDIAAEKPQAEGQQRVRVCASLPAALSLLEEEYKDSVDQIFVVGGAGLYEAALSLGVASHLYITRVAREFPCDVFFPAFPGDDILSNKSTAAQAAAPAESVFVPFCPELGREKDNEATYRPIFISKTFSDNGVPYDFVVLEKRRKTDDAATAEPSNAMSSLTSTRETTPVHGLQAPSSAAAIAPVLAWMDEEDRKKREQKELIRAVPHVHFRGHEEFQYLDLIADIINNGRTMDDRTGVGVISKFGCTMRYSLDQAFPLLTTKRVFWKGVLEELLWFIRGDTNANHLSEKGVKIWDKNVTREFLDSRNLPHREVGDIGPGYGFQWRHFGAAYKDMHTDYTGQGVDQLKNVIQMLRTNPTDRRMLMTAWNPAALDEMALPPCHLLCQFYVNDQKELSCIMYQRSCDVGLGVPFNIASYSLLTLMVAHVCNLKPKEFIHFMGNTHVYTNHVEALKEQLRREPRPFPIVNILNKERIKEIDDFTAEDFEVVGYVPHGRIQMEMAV

Flt-3 = biological target: T2, Flt-3 (Homo sapiens, UniProt P36888); assay: Flt-3 kinase whole cell assay, cytoblot in MV 3:11 cells; assay type: cell-based; conditions: versus 16
T2 sequence (P36888 27-993): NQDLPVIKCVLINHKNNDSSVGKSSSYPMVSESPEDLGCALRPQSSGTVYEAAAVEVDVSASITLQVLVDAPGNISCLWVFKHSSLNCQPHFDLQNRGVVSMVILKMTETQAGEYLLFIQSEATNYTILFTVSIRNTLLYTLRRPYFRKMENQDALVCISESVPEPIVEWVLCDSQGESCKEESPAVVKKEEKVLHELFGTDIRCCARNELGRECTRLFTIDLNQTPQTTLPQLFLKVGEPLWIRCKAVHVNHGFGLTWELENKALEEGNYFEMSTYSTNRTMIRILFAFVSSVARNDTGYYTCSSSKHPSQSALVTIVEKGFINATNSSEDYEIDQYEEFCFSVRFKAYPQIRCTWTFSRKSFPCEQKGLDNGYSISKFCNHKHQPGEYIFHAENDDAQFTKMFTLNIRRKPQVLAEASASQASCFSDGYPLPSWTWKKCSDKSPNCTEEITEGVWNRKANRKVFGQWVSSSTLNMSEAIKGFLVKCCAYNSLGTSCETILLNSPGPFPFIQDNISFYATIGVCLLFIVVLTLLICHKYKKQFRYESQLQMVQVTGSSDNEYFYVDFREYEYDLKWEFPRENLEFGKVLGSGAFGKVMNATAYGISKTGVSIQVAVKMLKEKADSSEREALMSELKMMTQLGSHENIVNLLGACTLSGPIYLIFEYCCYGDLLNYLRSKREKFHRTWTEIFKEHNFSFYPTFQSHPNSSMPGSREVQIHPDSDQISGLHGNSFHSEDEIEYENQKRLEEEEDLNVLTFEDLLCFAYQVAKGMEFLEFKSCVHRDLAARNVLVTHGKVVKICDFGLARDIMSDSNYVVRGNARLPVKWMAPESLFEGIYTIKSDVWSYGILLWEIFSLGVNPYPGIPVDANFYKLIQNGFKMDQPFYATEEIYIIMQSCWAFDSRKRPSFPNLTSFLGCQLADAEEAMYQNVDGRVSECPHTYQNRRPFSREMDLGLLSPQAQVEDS

[9] = biological target: T3, Toxoplasma gondii dihydrofolate reductase (Toxoplasma gondii, UniProt Q07422); assay: biochemical
T3 sequence (Q07422 1-610): T1 sequence (Q07422 1-610)

Sequence of human thymidylate synthase (hTS) (P04818 whole entry): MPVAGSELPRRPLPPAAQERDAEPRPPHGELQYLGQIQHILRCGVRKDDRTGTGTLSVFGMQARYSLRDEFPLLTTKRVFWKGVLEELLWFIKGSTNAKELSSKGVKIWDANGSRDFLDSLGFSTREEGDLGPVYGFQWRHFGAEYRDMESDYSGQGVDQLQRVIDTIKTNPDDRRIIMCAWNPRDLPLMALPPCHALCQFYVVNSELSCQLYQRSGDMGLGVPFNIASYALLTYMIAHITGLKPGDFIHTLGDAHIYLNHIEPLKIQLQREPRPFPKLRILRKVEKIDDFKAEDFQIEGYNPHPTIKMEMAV
Sequence of E. coli thymidylate synthase (P0A884 whole entry): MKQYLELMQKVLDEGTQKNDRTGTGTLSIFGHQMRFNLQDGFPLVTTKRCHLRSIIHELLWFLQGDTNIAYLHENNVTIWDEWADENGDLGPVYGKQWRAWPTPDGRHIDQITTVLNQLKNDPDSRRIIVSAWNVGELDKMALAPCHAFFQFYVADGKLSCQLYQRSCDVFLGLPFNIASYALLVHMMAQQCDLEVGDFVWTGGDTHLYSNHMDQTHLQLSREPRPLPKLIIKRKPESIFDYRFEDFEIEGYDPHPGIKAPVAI
Sequence of PDGFR-β (P09619 33-1106): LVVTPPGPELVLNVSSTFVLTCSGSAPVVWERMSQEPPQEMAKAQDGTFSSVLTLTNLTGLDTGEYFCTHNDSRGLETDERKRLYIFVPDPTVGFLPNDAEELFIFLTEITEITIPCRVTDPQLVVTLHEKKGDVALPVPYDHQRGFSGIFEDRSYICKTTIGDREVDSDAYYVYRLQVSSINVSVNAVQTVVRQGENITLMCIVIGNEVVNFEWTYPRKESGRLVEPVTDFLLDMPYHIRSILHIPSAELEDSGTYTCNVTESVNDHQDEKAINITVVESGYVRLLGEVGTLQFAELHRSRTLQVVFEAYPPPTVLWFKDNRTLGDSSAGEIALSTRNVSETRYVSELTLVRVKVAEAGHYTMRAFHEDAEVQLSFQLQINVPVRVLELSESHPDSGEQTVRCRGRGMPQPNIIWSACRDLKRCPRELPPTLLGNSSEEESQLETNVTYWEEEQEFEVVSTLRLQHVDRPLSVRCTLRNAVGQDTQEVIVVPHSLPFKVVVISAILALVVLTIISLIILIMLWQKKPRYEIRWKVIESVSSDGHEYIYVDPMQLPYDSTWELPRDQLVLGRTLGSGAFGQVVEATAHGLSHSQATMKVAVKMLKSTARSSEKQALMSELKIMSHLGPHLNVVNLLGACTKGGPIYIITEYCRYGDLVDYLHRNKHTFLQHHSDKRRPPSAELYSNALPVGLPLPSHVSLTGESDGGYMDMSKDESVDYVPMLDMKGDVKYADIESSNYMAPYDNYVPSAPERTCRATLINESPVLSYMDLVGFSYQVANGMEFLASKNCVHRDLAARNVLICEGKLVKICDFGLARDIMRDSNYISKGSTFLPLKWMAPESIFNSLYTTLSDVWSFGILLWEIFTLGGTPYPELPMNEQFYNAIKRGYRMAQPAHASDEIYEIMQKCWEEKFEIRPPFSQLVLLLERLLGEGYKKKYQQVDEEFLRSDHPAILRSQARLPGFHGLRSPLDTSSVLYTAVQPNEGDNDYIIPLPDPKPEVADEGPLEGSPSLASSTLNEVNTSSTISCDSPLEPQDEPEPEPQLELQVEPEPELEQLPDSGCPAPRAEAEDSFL

| SMILES | tolerability in mice [1] | cell cycle effect [2] | highest dose resulting in no lethality or overt toxicity in embryos [3] [mg/kg] | numbers of COLO-205 metastases to the liver [4] | cell viability (cell kill) sensitivity by cell type [5] | levels of activated phospho-Akt (MDA-MB-435 breast cells) | levels of activated phospho-p42/44 MAPkinase (ERK 1/2) (MDA-MB-435 breast cells) | levels of cleaved caspase 3 (MDA-MB-435 breast cells) | GI50 (NCI 60 tumor cell lines) [µM] | hTS: fold more active than PMX as its monoglutamate [6] [fold] | IC50 [7] [µM] | PDGFR-β: fold less potent than the standard DMBI (PDGFR-β) | IC50 [8] [µM] | Flt-3: fold less active compared with standard 16 (Flt-3) | IC50 [9] [µM] |
| --- | --- | --- | --- | --- | --- | --- | --- | --- | --- | --- | --- | --- | --- | --- | --- |
| Nc1nc(N)c2c(n1)[nH]c1cccc(Sc3ccccc3)c12 [Compound 1, 5-(phenylthio)-9H-pyrimido[4,5-b]indole-2,4-diamine] | well tolerated without any visual ADRs or loss in weight | buildup in G2/M | 25 | significantly reduced numbers of COLO-205 metastases to the liver | Human retinal pericytes (Huperi-3),[64] (not human aortic SMCs), were very sensitive | neither agent resulted in increased levels of activated phospho-Akt | reduced levels of activated ERK 1/2 | neither 20 μM 1 or 20 μM 2 resulted in increased levels of cleaved caspase 3 | 1 to 10 |  |  |  |  |  |  |
| Cc1ccc(Sc2cccc3[nH]c4nc(N)nc(N)c4c23)cc1 [Compound 2, 5-[(4-methylphenyl)thio]-9H-pyrimido[4,5-b]indole-2,4-diamine] |  | increase in S phase |  |  | tumor cells being the most sensitive, endothelial cells falling someplace in the middle, and SMC variants being the least sensitive | neither agent resulted in increased levels of activated phospho-Akt | reduced levels of activated ERK 1/2 | neither 20 μM 1 or 20 μM 2 resulted in increased levels of cleaved caspase 3 |  | 76 | > 26 | about 11 fold | > 26 | about 13 fold | > 31 |
| Nc1ccn([C@@H]2O[C@H](CO)[C@@H](O)C2(F)F)c(=O)n1 [gemcitabine, reference compound] |  |  | 10 |  |  |  |  |  |  |  |  |  |  |  |  |

Reference: paper PMC2825747 (Journal of medicinal chemistry, 2010)
